The values that follow come from patent publication US20050197634A1, “Methods for coating and impregnating medical devices with antiseptic compositions” (Board of Regents, The University of Texas System, priority 2004, published 2005).

Structures are written as SMILES.

The test system of one assay is S. epidermis. The conditions noted are these: in vitro study, gentian violet alone; cited from earlier work.
In a further assay the test system is Pseudomonas aeruginosa. The assay is described as follows: Zones of inhibition of impregnated device segments, modified Kirby-Bauer technique. The assay is classed as cell-based. The note with it: gentian violet after impregnating surfaces of various polymers incl. polyvinylchloride. Here is the method:
(§1) In Vitro antimicrobial activity. The antimicrobial activity of impregnated catheters was evaluated in duplicate by a modified Kirby-Bauer technique. BBL Mueller Hinton II agar plates (obtained from Fisher Scientific) were inoculated with 0.5 McFarland of the appropriate microorganism (hospital isolates from the MD Anderson Cancer Center). Then 10 mm segments of impregnated devices were embedded in the inoculated plates and placed in an incubator at about 37° C. for at least 18 hours. Zones of inhibition were measured perpendicular to the long axis of the device.
(§2) Anti-microbial activity of GND-ETT and GND-UC segments was assessed by modified Kirby-Bauer method. Segments were embedded in Mueller Hinton agar plates inoculated with one of the following organisms: Candida albicans (CA), vancomycin resistant enterococci (VRE), E. coli (EC), Candida parapsilosis(CP), methicillin resistant S. aureus (MRSA) or Pseudomonas aeruginosa (PS). Plates were incubated at 37° C. Zones of inhibition (ZOI) created by impregnated segments were measured in mm.
(§3) GND-ETT and GND-UC were immersed in sterile pooled bronchoalveolar lavage (BAL) or urine, respectively, and incubated at 37° C. BAL and urine were changed weekly and ZOI were determined in duplicate at weekly intervals.

For assay [1], the system named is various nosocomial pathogens. Briefly: In vitro zones of inhibition of coated or impregnated catheter devices and sutures. The assay is classed as cell-based. The note with it: coating or impregnating catheter devices and sutures. Here is the method: as §1
In assay [2] the test system is Methicillin resistant Staph. aureus (MRSA2066). The assay is described as follows: Zones of inhibition of impregnated device segments, modified Kirby-Bauer technique. In kind it is cell-based. The conditions noted are these: in words. Here is the method: as §1, §2, §3
For assay [3], the system named is Candida parapsilosis (C. Parap.1-100-0022). Described as above. In kind it is cell-based. The conditions noted are these: in words. The procedure: as §1, §2, §3
The next assay relates to Alcaligenes faecalis. The assay is described as follows: Zones of inhibition of impregnated PVC tubes. The note with it: in words. The assay is classed as cell-based. The procedure: as §1
[4] abbreviates: sutures, compared with Genlenol.

`CN(C)c1ccc(C(=C2C=CC(=[N+](C)C)C=C2)c2ccc(N(C)C)cc2)cc1` [GV, Gentian violet]: in the assay on S. epidermis, the “colonization of S. epidermis on impregnated CSF silicone shunt surfaces” value is “prevent the colonization”. Besides, the “activity against Pseudomonas aeruginosa, agent on its own” value in the assay with Pseudomonas aeruginosa is given as “no activity”.

For the compound `CC(C)(C)CC(C)(C)c1ccc([O-])c(Cc2ccc(Cl)cc2Cl)c1.CN(C)c1ccc(C(=C2C=CC(=[N+](C)C)C=C2)c2ccc(N(C)C)cc2)cc1` [Genfoctol], in assay [1], the “in vitro zones of inhibition against various nosocomial pathogens” value (“in vitro zones of inhibition” for short) was “large in vitro zones of inhibition”. Also, in assay [2] (setting [4]), the “zones against MRSA” value is given as “much larger zones”. Moreover, in assay [3] (setting [4]), the “zones against C. parapsilosis” value is on record as “much larger zones”.

For the compound `CN(C)c1ccc(C(=C2C=CC(=[N+](C)C)C=C2)c2ccc(N(C)C)cc2)cc1.Cc1cc([O-])cc(C)c1Cl` [Genlenol], the “in vitro zones of inhibition” value in assay [1] was “large in vitro zones of inhibition”. Also, in the assay on Alcaligenes faecalis, the “zones of inhibition against Alcaligenes faecalis” value is reported as “to a large extent”. For the same compound, in assay [2] (silicone catheter), the “zone against MRSA” value was “increased the zone against MRSA considerably”. The “zones of inhibition against C. parapsilosis” value in assay [3] (PVC tubes and PVC catheters) was “Improvements”. For the same compound, the “zone against C. parapsilosis” value in assay [3] (silicone catheter) is reported as “large zone”.

On to `CN(C)c1ccc(C(=C2C=CC(=[N+](C)C)C=C2)c2ccc(N(C)C)cc2)cc1.[O-]c1cc(Cl)ccc1Oc1ccc(Cl)cc1Cl` [Genlosan], for which the “in vitro zones of inhibition” value in assay [1] is “large in vitro zones of inhibition”.

Regarding `Cc1cc(O)cc(C)c1Cl` [PCMX, p-chloro-m-xylenol; 4-chloro-3,5-dimethylxylenol, reference compound], the “in vitro zones of inhibition” value in assay [1] is recorded as “Neither the neutral form of PCMX nor its sodium salt could produce in vitro zones of inhibition”.

Take `[H]/N=C(\N/C(=N/[H])NCCCCCCNC(=N)NC(=N)Nc1ccc(Cl)cc1)Nc1ccc(Cl)cc1` [chlorhexidine]: the “activity against Pseudomonas aeruginosa, agent on its own” value in the assay on Pseudomonas aeruginosa is listed as “not highly active”.
